The text below walks through data of PubChem BioAssay (NCI).

Holding throughout (assay): NCI tumour cell line growth inhibition, 48 h
Test [1] concerns CCRF-CEM leukemia.
The test system of test [2] is HCC-2998 colon.
The subject of test [3] is K-562 leukemia.
For test [4], the system named is MDA-MB-231 breast.
For test [5], the system named is NCI-H226 lung.
Test [6] has as its system RXF 393 renal.
Test [7] deals with SK-MEL-5 melanoma.
The test system of test [8] is SK-OV-3 ovarian.
For test [9], the system named is SNB-75 CNS.
In test [10] the test system is U251 CNS.

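How tested: cells in 96-well plates exposed to compound for 48 hours at five concentrations. At the GI50, growth is halved. The concentration for full growth arrest is given as TGI.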 A value given as a limit tells only on which side of the number the result lay.

As to `Nc1c2c(nc3ccccc13)-c1ccccc1CCC2`, the TGI in test [1] was found to be 49.1 µM; in test [2], 12.2 µM; in test [3], 33.8 µM; in [4], 27.8 µM; in test [5], 28.9 µM; in test [6], 23.7 µM. Also, the TGI came to 20.1 µM in test [7], 31 µM in test [8], 24.2 µM in test [9] and 28.3 µM in test [10].

On to `CCCCOP(=O)(OCCCC)C(NS(=O)(=O)c1ccccc1)(C(=O)OCC)C(F)(F)F` (stereo not drawn), for which the TGI in [1] was 72.5 µM; in test [2] it was over 100 µM; in [3], 59.9 µM; in [4], 36.7 µM; in test [5] it was 74.9 µM; in test [6], 53 µM. The TGI is 33.9 µM in test [7], over 100 µM in test [8], 78.1 µM in [9] and 65 µM in test [10].

In the case of `COc1cc2[nH]c(=O)[nH]c2c2c(C)c[nH]c12`, the TGI in test [1], in test [2], in test [3], in test [4], in test [5] and in test [6] was over 100 µM throughout. The TGI in [7], in test [8], in test [9] and in test [10] was over 100 µM in each case.

As to `O=C(/C=C/c1ccco1)c1ccc(Nc2ccnc3cc(Cl)ccc23)cc1`, the GI50 in [1] was 6.56 µM; in test [2] it was over 100 µM; in [3] it was 2.97 µM; in test [4], 12.8 µM; in [5] it was over 100 µM; in test [6] it was 20.9 µM. For the same compound, the GI50 is 12 µM in test [7], over 100 µM in [8] and over 100 µM in test [9]. Further, the TGI in test [1] was over 100 µM; in test [2], over 100 µM; in test [3] it was over 100 µM; in test [4], 34.7 µM; in test [5], over 100 µM; in test [6] it was over 100 µM. Besides, the TGI in [7], in test [8] and in [9] was over 100 µM each time.

As to `O=C1CCCc2ccc3c(c21)CC1(Cc2cc4c(cc2C1)CCCC4)C3`, the TGI was 16 µM in test [1]; over 100 µM in test [2]; 25.1 µM in [3]; 38.2 µM in [4]; 93.3 µM in test [5]; 32 µM in test [6]. Further, the TGI is 26.2 µM in test [7], over 100 µM in [8], 65.1 µM in test [9] and 44.4 µM in [10].

As to `COc1cc(C(C)(C)C)c(OC(=O)/C=C/C(=O)O/C=C/[N+](=O)[O-])c(C(C)(C)C)c1`, the TGI in test [1] was 37.3 µM; in test [2], over 100 µM; in test [3], over 100 µM; in [4] it was 82.1 µM; in [5], over 100 µM; in test [6], 81.7 µM. Besides, the TGI in test [7], in [8], in test [9] and in [10] was over 100 µM in each case.

As to `CC(C)=CCC[C@@H](C)c1c(O)c(O)c(C)c2nc3ccccc3nc12`, the TGI is 0.8 µM in [1]; 22.2 µM in test [2]; over 32.5 µM in test [3]; 15 µM in [4]; 5.97 µM in [5]; 4.45 µM in [6]. For the same compound, the TGI in test [7] was 10.6 µM; in [8], 21.7 µM; in test [9], 6.8 µM; in test [10], 22.8 µM.

For the compound `CCCCC(=O)Nc1ccc2cc(C(=O)OC)c(=O)[nH]c2n1`, the TGI in test [1], in test [2], in test [3], in [4], in [5] and in test [6] was over 100 µM in each case. For the same compound, the TGI in [7], in [8], in test [9] and in [10] was over 100 µM throughout.

`CN(CCN(C)Cc1ccc(Cl)c(Cl)c1)CCN1CCCC1`: the TGI in [1] was 23.6 µM; in [2] it was 32.2 µM; in [3], 32.2 µM; in test [4], over 96.1 µM; in [5] it was 94.9 µM; in [6], 99.9 µM. The TGI was 29.1 µM in test [7], over 100 µM in test [8], over 90.5 µM in [9] and over 100 µM in test [10].

`CCNc1nc2ccccc2nc1NCC`: the TGI in test [1], in [2], in [3], in test [4], in test [5] and in test [6] was over 100 µM each time. For the same compound, the TGI in [7], in test [8], in [9] and in test [10] was over 100 µM each time.

With `O=C(O)c1cc(/C=C/c2ccc(O)c(O)c2)ccc1O`, the TGI in test [1] was 82.1 µM; in test [2], over 100 µM; in test [3] it was 44.9 µM; in test [4] it was over 100 µM; in [5] it was over 100 µM; in test [6], over 100 µM. For the same compound, the TGI in [7], in test [8], in test [9] and in [10] was over 100 µM in each case.

For the compound `CS(=O)(=O)c1ccc(C2=C(c3ccccc3)C(=O)OC2)cc1`, the TGI in test [1], in [2], in test [3], in test [4], in test [5] and in test [6] was over 100 µM in each case. Moreover, the TGI in test [7], in test [8], in test [9] and in test [10] was over 100 µM each time.

As for `CCOC(=O)C(NC(=O)Nc1ccccc1)(Nc1cccc(Cl)c1)C(F)(F)F` (stereo not drawn), the TGI in test [1], in test [2], in test [3], in test [4], in test [5] and in test [6] was over 100 µM each time. Also, the TGI in test [7], in [8], in test [9] and in test [10] was over 100 µM throughout.
